SMILES | melting point [°C]
N#Cc1ccc2[nH]cc(Cc3cccnc3)c2c1 | 125
O=C(N[C@H](Cc1cccc(OC(F)(F)C(F)F)c1)[C@@H](O)c1ccc(CN2CCCCC2)cc1)c1cccc2c1C=CCCC2 (racemic) | 104 to 106
Cc1cccc(N2CCN(CCCCc3ccc(C4CCC(=O)N4)cc3)CC2)c1C (stereo not given) | 112 to 114
N#CNC(=NC1CCCC1)Nc1cccc(C(F)(F)F)c1 | 112 to 113
O=c1cc2c(nn1-c1ccc(Cl)cc1F)CCCC2 | 104 to 108
CC(NC(=O)c1cc(Cl)ccc1N)C1CC1 (stereo not given) | 135
CCCCc1cn(CCc2cccs2)c(=O)n1Cc1ccc(-c2ccccc2-c2nnn[nH]2)nc1 | 137 to 138
CCOC(=O)C1=NOC2(CCC(C(C)(C)CC)CC2)C1 (stereo not given) | 82 to 87
Cc1ccc(C=Cc2csc3ccccc23)s1 | 62 to 64
N#Cc1ccc2c(c1)C(n1ccccc1=O)=CC(CF)(CF)O2 | 174 to 175
CC(C)(CO)NCCCn1ccnc1 | 81 to 85
Nc1nc2c([nH]c(=O)n2Cc2cccs2)c(=O)[nH]1 | > 300
CCOC(=O)CCNC=C(C(=O)OCC)C(=O)c1cc(F)c(F)c(F)c1F | 96 to 97
CCOCCCc1ccc(-c2ccc3c(c2)C=C(C(=O)Nc2ccc(CN(C)C4CCOCC4)cc2)CCS3(=O)=O)cc1 | 217 to 219
O=C(NC1CCCCC1)NC1CCCc2sccc21 (stereo not given) | 222 to 225
CC(C)(C)OC(=O)CNC(=O)OCC1c2c(c3ccccc3c3ccccc23)-c2c1c1ccccc1c1ccccc21 | 170 to 171
CCN(CC)C(=O)n1cc(F)c(=O)[nH]c1=O | 157 to 160
O=C(O)c1ccc(-c2ccc3cc(OCc4ccccc4)c(C45CC6CC(CC(C6)C4)C5)cc3c2)s1 | 170 to 171
CC(C)C1Nc2ccc(S(=O)(=O)N3CCCCC3)cc2S(=O)(=O)N1 (stereo not given) | 237 to 239
O=C(O)CCCCCCCNS(=O)(=O)c1ccc([N+](=O)[O-])cc1 | 126 to 127
CC1(C)CC(CN2CCCNC2=N[N+](=O)[O-])CO1 (stereo not given) | 109 to 110
CC(c1c[nH]c([N+](=O)[O-])n1)N1CCCCC1 (stereo not given) | 61 to 62
Cc1ccc(-c2ccc3c(c2)C=C(C(CN(C)C2CCOCC2)Oc2ccccc2)CCO3)cc1 (stereo not given) | 135 to 136
Cc1nc(C(N)=O)n(COCc2ccccc2)c1Sc1ccccc1 | 153 to 154
CCCCCCS(=O)C1CC(=O)N1CC(=O)CCc1ccccc1 (stereo not given) | 154 to 155
O=S(=O)(O)c1ccc(Oc2ccc(-n3ccnc3)cc2)cc1 | 80
CN1C(=O)CCC2(C)c3ccc(Sc4ccncc4)cc3CCC12 (single isomer, unassigned; (+)) | 157 to 158
O=C1CCC(N2Cc3c(OCc4ccc(CN(CCC(F)(F)F)CCC(F)(F)F)cc4)cccc3C2=O)C(=O)N1 (stereo not given) | 107 to 109

SMILES | melting point [°C]
O=C1C2=C(CCCC2)C(=O)N1c1cc([N+](=O)[O-])c(Cl)cc1F | 152 to 155
CCCN(CCC)CCc1ccc(OC)c2[nH]c(=O)[nH]c12 | 35
c1ccc2c(c1)Cc1c(-c3ccc(OCCN4CCOCC4)cc3)n[nH]c1-2 | 175 to 176
O=C1NCCc2ccc(O)cc21 | 201 to 203
O=C1N(Cc2ncccc2C(F)(F)F)c2ccccc2C12COc1ccc3c(c12)OCCO3 (stereo not given) | 245 to 247
O=C(NC1CC1)c1ccc(N2CCN(Cc3cnc4c(c3)[nH]c(=O)n3cccc43)CC2)cc1 | 270 to 272
C/C(=C\c1ccc(C(F)(F)F)cc1)C(=O)O | 170
CCCn1c(-n2nc(-c3c(-c4ccccc4)nn4ccccc34)ccc2=O)cc(=O)n(CCC)c1=O | 155
C1=C(c2cc3ccccc3s2)CCC2(C1)CCNCC2 | 107 to 110
Cc1ccc(C)c(C(=O)CC#N)c1 | 75 to 76
CC(=O)N1CCN(c2ccc(NS(C)(=O)=O)c(C)c2)CC1 | 153 to 154
NS(=O)(=O)c1ccccc1OCCCl | 110
CC(C)(C)OC(=O)N1CCN(C(=O)c2cccs2)CC1 | 76
CNC(=O)c1ccc(NCC(=O)O)cc1 | 234
C[C@H](c1ncnc(Sc2ccc(Cl)cc2)c1F)[C@@](O)(Cn1cncn1)c1ccc(F)cc1F | 158 to 160
CN(CCSc1ccc([N+](=O)[O-])cc1)CCc1ccc([N+](=O)[O-])cc1 | 56 to 57
CCC(C)NC1=NS(=O)(=O)c2cc(C(F)(F)F)ccc2N1 (stereo not given) | 234 to 236
O=c1c2c(OCC3CS3)cc(OCC3CS3)cc2oc2ccc3ccccc3c12 (stereo not given) | 225 to 226
CC12CCCc3c1n(c1ccccc31)C(=O)CC2 (stereo not given) | 93 to 95
CC(=O)OC1CCC2(C)C(CCC3C4CCC(C(C)=O)C4(C)CC4OC432)C1 (stereo not given) | 133 to 136
CCc1nc2c(n1Cc1ccc(-c3ccccc3)cc1)C(=O)N(C)CN2c1ccc(Cl)cc1Cl | 216 to 217
CC(C)(C)OC(=O)NCc1cc(N=C(N)c2cccs2)ccc1N1CCN(C(=O)CCCCC2CCSS2)CC1 (stereo not given) | 162 to 164
O=C1CCCc2cc(Sc3cccc(F)c3)ccc21 | 66.2 to 66.7
CN1C(=O)CC[C@]2(C)c3ccc(-c4ccc(C#N)cc4)cc3CC[C@@H]12 | 148 to 150
CCOC(=O)c1cn(CC)c2nc(N3CCN(C(C)=O)CC3)ncc2c1=O | 208 to 210
CC1Sc2c(C(=O)O)c(=O)c3cc(F)c(N4CCC(N)C4)c(Cl)c3n21 (stereo not given) | > 300
O=CNc1csc(Br)n1 | 167

Next, values leading:

melting point [°C] | SMILES
159 to 162 | O=C(c1cccc(O)c1)C(O)c1cccc(O)c1 (stereo not given)
169 to 170 | Cc1cccc(C(=O)Nc2c[nH]nc2C(=O)NCCCOC(C)C)n1
113 to 114 | O=C(NC(Cl)C(Cl)(Cl)Cl)c1ccccc1O (stereo not given)
160 to 161 | Cc1cc(CNC(=O)c2ccnc(-n3cnn(Cc4ccc(F)c(F)c4)c3=O)c2)no1
117 to 118 | CCCCCc1c(C(C)C)nc(C(C)C)c(CO)c1-c1cccc(F)c1
162 to 164 | CCONC(=O)c1cccc(NC(C)=C2C(=O)OC(=O)C(C(C)=O)=C2O)c1
155 to 157 | COC(=O)c1ccc(Cl)cc1-n1c(CCl)nc2ccccc2c1=O
79 | CCCCc1nc(SCCF)c(C(=O)OCC)n1Cc1ccc(-c2ccccc2C(=O)O)cc1
164 to 166 | CCCOc1ccccc1-c1nc(NCCO)cc(=O)[nH]1
104 to 105 | COC(=O)C(C)c1ccc2oc(-c3c(F)cccc3Cl)nc2c1 (stereo not given)
119 to 120 | C=C(C)COc1ccc(C(=O)C=Cc2cccs2)c(O)c1
63 to 65 | CCc1c(-c2ccc(OCc3ccccc3)cc2)c2cc(COCCCN(C)C)c3cccc1n32
147 to 148 | CC(=O)NCC1CC1c1ccc(F)c2nn(C)cc12 (stereo not given)
191 to 192 | COc1cc2c(cc1OC)C(C(CO)CO)N(C(=O)Nc1ccccc1)CC2 (stereo not given)
58.1 to 58.7 | CCC(=O)c1ccc(OC)c(OC(C)C)c1
133 | CCOC(=O)NC(=O)C(c1ccccc1)c1ccccc1
120 to 122 | COc1ccc([N+](=O)[O-])c(Br)c1OC
70 to 71 | COc1ccc(OC)c(C=CC#N)c1
215 to 220 | Cc1cc(C)c2ccc(N)nc2n1
300 | Nc1ncc(-c2noc(-c3cnn4c(C(F)(F)F)cc(-c5ccc(Cl)c(Cl)c5)nc34)n2)cn1
228 to 230 | COC(=O)c1nc2ccc(Cl)cc2c(O)c1C(=O)OC
183 to 184 | COC(=O)c1cc(-c2ccc(=O)n(C(C)C)n2)c(-c2ccccc2)nc1OCC(N)=O
100 to 101 | CN1CCN(c2cccc3ccc(-c4cccc(NS(C)(=O)=O)c4)cc23)CC1

melting point [°C] | SMILES
98 to 100 | CCOC(=O)C(CC)C(=O)Nc1ccc(Br)cc1C (stereo not given)
195 | NC1=NN(C(=O)NC=NO)C(=O)C1Cc1ccccc1 (stereo not given)
176 to 177 | Cc1cc(C)c(NC(=O)N(O)C(C)C)cc1C
104 to 105 | CCCCOc1ccc(Cl)cc1C(=O)NCCc1ccc(CC(=O)O)cc1
127 to 128 | C/C=C/CNC(=O)N1CC(Oc2cccc(C(F)(F)F)c2)C1
162 to 164 | COc1nc2cc([N+](=O)[O-])c(C)c(C(=O)Cl)c2nc1OC
200 to 205 | Cc1c2n(c3ccccc13)C(=O)C(=Cc1ncn(S(=O)(=O)N(C)C)c1C)CC2
123 to 124 | C=CCOC(=O)C1=C(C)NC(C)=C(C(=O)OC)C1c1cc(Br)c(OC)c(OC)c1 (stereo not given)
103 | CCCCc1nc(S(C)=O)c(C(=O)OCC)n1CC1Oc2ccc(Cl)cc2O1 (stereo not given)
157 to 160 | COc1ccc(C(=O)N(C)c2ccc(C(=O)O)cc2)cc1
102 to 103 | O=C(O)CCc1cnoc1-c1ccc(F)c(F)c1
123 | CCCCCCCNC(=O)N(C)c1cccc(-c2ccc(C=C(C)C(=O)O)cc2OCC)c1
194 to 198 | CCc1nc(C)n2nc(C(=O)O)nc2c1Cc1ccc(-c2ccccc2-c2nnn[nH]2)cc1
125 | COc1ccccc1NC(=O)Oc1ccc2c(c1)N(Cc1ccccc1)CCC2
183 to 185 | CCCCc1c(O)c2nccnc2n(-c2ccccc2)c1=O
91 to 111 | COc1cc2c(cc1Nc1ncc(Cl)c(Nc3cccc(N4CCOCC4)c3)n1)CCN(CC(=O)N(C)C)CC2
143 to 144 | CC(C)Cn1c(CO)c(-c2ccc(F)cc2)c2cc(OCc3ccccc3)ccc2c1=O
173 to 175 | OCC1OC(n2cnc3c(NCC4Cc5cccc6cccc4c56)ncnc32)C(O)C1O (stereo not given)
113 to 115 | O=C(CSCCCCOc1ccccc1)NNC(=O)c1ccc(O)cc1
127 to 129 | COC(=O)C1=C(C)NC(C)=C(C(=O)OCC2CCCO2)C1c1cccc(C#N)c1 (stereo not given)
195 to 198 | CC(C)(C)ON=C1CCC(NC(=O)N2CCn3c(Cl)c(-c4cccc(F)c4)c(C(N)=O)c3C2)CC1 (stereo not given)
172 to 174 | COC(=O)C(=CN(C)C)N(C)c1cc(-c2cccc(OC)c2)ncn1

Reference: a melting point compilation (Tetko et al.; mined from patent text by program, amines drawn as free bases though some values may be those of a salt)
